Assays:
[1] = tested on: CFA-hindpaw inflammation; assay: CFA-hindpaw inflammation, paw pressure test (CFA-PPT), intraperitoneal injection; type: in vivo, rat; conditions: ip; Lidocaine dose range 10 mg/kg to 46.4 mg/kg, Diclofenac dose range 21.5 mg/kg to 100 mg/kg
Description: An interaction study was performed as a single dose study in the CFA-hindpaw inflammation, paw pressure test.
In comparative example 1 and inventive examples 1 to 4 described below, a compound or combination of compounds was administered by intraperitoneal injection (FIGS. 1 to 9).
(§1) The pain was measured by pressing a pointer on the inflamed paw. The pointer exerts a force, increasing at a constant rate, monitored by a linear scale. Pain is deemed to be perceived one the rat starts to withdraw the paw. This value (withdrawal threshold in gram) is the pressure at which the animal feels pain (cut-off 450 g). Efficacy of the test compounds is expressed as a percent change of withdrawal threshold after compound administration to the pre-value (withdrawal threshold before compound administration).

[2] = tested on: CFA-induced paw edema / mechanical-hyperalgesia; assay: CFA-hindpaw inflammation, paw pressure test (CFA-PPT), topical application to the paw as ointment or solution; type: in vivo, male albino rats; conditions: Lidocaine 30 mg/ml to 60 mg/ml, Diclofenac 40 mg/ml to 80 mg/ml
Description: In comparative example 2 and inventive examples 5 to 8 as described below, a compound or combination of compounds was administered topically to the paw by means of an ointment or solution (FIGS. 10 to 18).
The efficacy was tested when a compound or a compositions of compounds was administered topically as an ointment or a solution. The study was performed on male albino rats (150-180 g body weight) to which an edema of paw was induced by injection of Complete Freunds Adjuvant (CFA). CFA is a composition of inactivated and dried Myobacteria tuberculoses, emulsified in mineral oil which is used as an immunopotentiator causing a painful reaction that lasts 7-8 days after subcutaneous injection.
The studies of comparative example 2 and inventive examples 5 to 8 were performed according to the following procedure: 50 μL of CFA were injected sub plantar into the right hind paw, inducing mechanical-hyperalgesia after 24 hours. […]
as §1, with “Pain is deemed to be perceived one the rat starts to withdraw the paw. This value (withdrawal threshold in gram) is the pressure at which the animal feels pain (cut-off 450 g).” left out

SMILES | efficacy when administered alone [1] | efficacy when topically administered alone [2]
O=C(O)Cc1ccccc1Nc1c(Cl)cccc1Cl [Diclofenac, 2-(2,6-dichloranilino) phenylacetic acid] | dose dependent efficacy | dose dependent efficacy
CCN(CC)CC(=O)Nc1c(C)cccc1C [Lidocaine, 2-(diethylamino)-N-(2,6-dimethylphenyl)acetamide] | dose dependent efficacy | dose dependent efficacy
